Series [1] deals with rat lung SMC and lung fibroblasts. As to conditions: cited from earlier work.
The target in series [2] is 5-HTT (Rattus norvegicus, UniProt P31652). As to conditions: cited from earlier work.
The subject of series [3] is experimental hypoxic PH. The conditions noted are these: previous studies (Eddahibi, Raffestin et al. 1998); cited from earlier work.
Series [4] relates to human pulmonary artery smooth muscle cells (PA-SMCs). Put plainly: 5-HT-induced proliferation of human PA-SMCs ([3H]thymidine incorporation). Type of series: cell-based. As to conditions: cells in 0.2% FCS; for 5-HT-induced increase in [3H]thymidine incorporation (mitogenic response to 5-HT): drug at 10^−5 M, added before 5-HT. The method, then:
Effect of 5-HT on the Proliferation of Human Pulmonary Artery Smooth Muscle Cells (PA-SMCs)
The methods used for the culture and the characterization of human PA-SMCs have been previously described (Eddahibi, Humbert et al. 2001). In brief, PA-SMCs were obtained from patients undergoing lung resection for cancer. They were seeded in 24-well plates at a density of 5×10^4 cells/well and allowed to adhere in DMEM supplemented with 15% fœtal calf serum (FCS). Cells were then subjected to 48 h of growth arrest in medium containing only 0.2% FCS before being incubated in DMEM supplemented with 0.2% FCS, 0.6 mM of ascorbic acid, 0.1 mM of iproniazid (a monoamine oxidase inhibitor), 0.6 μCi/mL of [^3H]thymidine, with or without 5-HT (10^−8 to 10^−6 M). […] Each of these drugs was added 20 min before 5-HT. After incubation for 24 hours, cells were washed twice with PBS, treated with ice-cold 10% trichloroacetic acid (1 ml/well), and dissolved in 0.1 N NaOH (0.5 ml/well). The incorporated radioactivity was counted and reported as cpm per well.

The test system of series [5] is mice exposed to acute hypoxia. Put plainly: Hemodynamic response (RVSP) of normoxic mice to acute hypoxia. The series is classed as in vivo, mice (C57BL6/J). The conditions noted are these: two-day pretreatment; for pressure (RVSP) response to acute hypoxia: antagonists 2 mg/kg/day i.p., compared with vehicle-treated controls. The method, then:
All experiments were performed using adult male mice (C57BL6/J, 8 weeks old) in conformity with the institutional guidelines that are in compliance with national and international laws and policies.
Mice were anaesthetized with ketamine (60 mg/kg, i.p) and xylazine (10 mg/kg, i.p). The trachea was cannulated, and the lungs were ventilated with room air at a tidal volume of 0.2 ml and a rate of 90 breaths per minute. Systemic arterial pressure was determined by catheterization of the carotid artery. A 26-gauge needle was then introduced percutaneously into the right ventricle via the subxyphoid approach. Right ventricular systolic pressure (RVSP) was measured using a Gould P10 EZ pressure transducer connected to pressure modules and a Gould TA 550 recorder. RVSP and heart rate were recorded first while the animal was ventilated with room air and then after 5 min of ventilation with hypoxic gas mixture (8% O2, 92% N2). […] If the heart rate fell below 300 bpm, measurements were excluded from analysis.
To investigate the effects of 5-HTT inhibition and/or 5-HT receptor blockade on acute hypoxic vasoconstriction, nine groups of mice (6-7 in each group) were studied. […] The last group consisted of control animals that received distilled water by gavage. The treatments were performed for two days and acute hypoxic vasoconstriction was measured on the following day one hour after the last treatment.

Series [6] relates to mice in normoxia. Put plainly: Physiological parameters during normoxia after treatment. The series is classed as in vivo, mice (C57BL6/J). As to conditions: control mice 88±7 mmHg.
In series [7] the test system is mice exposed to chronic hypoxia. Type of series: in vivo, mice (C57BL6/J). As to conditions: for muscularization of distal pulmonary vessels: vs control mice under similar hypoxic conditions; for hypoxia-induced increase in RVSP: 2-week hypoxia (10% O2), daily treatment: citalopram, fluoxetine 10 mg/kg/day, ketanserin 2 mg/kg/day, GR127935 2 or 10 mg/kg/day, vs vehicle. The method, then: All experiments were performed using adult male mice (C57BL6/J, 8 weeks old) in conformity with the institutional guidelines that are in compliance with national and international laws and policies. […] To establish the hypoxic environment, the chamber was flushed with a mixture of room air and nitrogen, and the gas was recirculated. The chamber environment was monitored using an oxygen analyzer (Servomex OA150, Crowborough, England). Carbon dioxide was removed by soda lime granules, and excess humidity was prevented by cooling the recirculation circuit. The chamber temperature was maintained at 22-24° C. The chamber was opened every other day for 1 hour to clean the cages and replenish food and water supplies. Normoxic mice were kept in the same room, with the same light-dark cycle. […] After incision of the abdomen and diaphragm, a 26-gauge needle connected to a pressure transducer was inserted into the right ventricle, and RVSP was recorded immediately. Blood was then sampled for hematocrit determination. […] The right ventricle (RV) was dissected from the left ventricle+septum (LV+S), and these dissected samples were weighed. The lungs were fixed by intratracheal infusion of 4% aqueous buffered formalin at a pressure of 23 cm H2O. The entire specimen was immersed in a bath of the same fixative for one week. A midsagittal slice of the right lung including the apical, azygous and diaphragmatic lobes was processed for paraffin embedding. Sections (5 μm thick) were cut for light microscopy and stained with hematoxylin-phloxin-saffron and orcein-picroindigo-carmine. In each mouse, a total of 50-60 […] vessels accompanying either alveolar ducts or alveoli were analyzed by an observer blinded to treatment. Each vessel was categorized as nonmuscular (no evidence of any vessel wall muscularization), partially muscular (SMCs identifiable in less than three-fourths of the vessel circumference), or fully muscular (SMCs in more than three-fourths of the vessel circumference). […] The percentage of pulmonary vessels in each muscularization category was determined by dividing the number of vessels in that category by the total number counted in the same experimental group. […] The animals were treated once a day during the two-week exposure to hypoxia.

For series [8], the system named is rats. The conditions noted are these: Keegan et al. 2001; cited from earlier work.
Setting [9] is: 2-week chronic hypoxia, daily treatment.

5-HTT, sequence (P31652 whole entry): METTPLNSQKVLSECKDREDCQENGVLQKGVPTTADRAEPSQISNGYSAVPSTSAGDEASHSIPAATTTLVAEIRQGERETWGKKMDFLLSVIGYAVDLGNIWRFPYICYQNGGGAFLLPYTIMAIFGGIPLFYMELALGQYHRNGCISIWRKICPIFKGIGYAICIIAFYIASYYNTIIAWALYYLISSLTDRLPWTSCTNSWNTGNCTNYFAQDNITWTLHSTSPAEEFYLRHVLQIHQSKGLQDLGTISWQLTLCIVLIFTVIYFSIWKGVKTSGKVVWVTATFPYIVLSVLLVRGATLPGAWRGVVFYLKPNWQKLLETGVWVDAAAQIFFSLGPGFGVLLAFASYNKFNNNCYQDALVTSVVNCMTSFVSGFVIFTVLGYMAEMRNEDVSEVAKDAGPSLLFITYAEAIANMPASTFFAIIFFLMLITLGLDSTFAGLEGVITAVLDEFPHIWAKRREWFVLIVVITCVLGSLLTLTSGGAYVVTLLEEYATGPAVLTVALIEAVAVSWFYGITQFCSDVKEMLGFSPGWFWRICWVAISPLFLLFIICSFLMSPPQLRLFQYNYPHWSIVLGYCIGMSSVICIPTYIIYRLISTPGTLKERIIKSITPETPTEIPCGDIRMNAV

On to `CCNC(C)Cc1cccc(C(F)(F)F)c1` (stereo not shown) [fenfluramine], for which, in series [1], the mitogenic effect entry is recorded as “mitogenic”.

Take `CC(C)(N)Cc1ccc(Cl)cc1` [chlorphentermine]: in series [2], the 5-HTT substrate is 5-HTT substrates.

Regarding `CCN[C@@H](C)Cc1cccc(C(F)(F)F)c1` [dexfenfluramine], in series [3], the “development of experimental hypoxic PH” value is listed as “not to attenuate”.

With `Cl.Cn1ccc2cc3c(cc21)CCN3C(=O)Nc1cccnc1` [SB 206553, N-3-pyridinyl-3,5-dihydro-5-methyl-benzo[1,2-b:4,5-b′]dipyrrole-1(2H)-carboxamide hydrochloride], the “5-HT-induced increase in [3H]thymidine incorporation (mitogenic response to 5-HT)” value (“5-HT-induced increase” for short) in series [4] is “not affected”.

`O=C(c1ccc(F)cc1)C1CCN(CCn2c(=O)[nH]c3ccccc3c2=O)CC1` [ketanserin]: the “5-HT-induced increase” value in series [4] is recorded as “not affected”. In addition, the “pressure (RVSP) response to acute hypoxia” value in series [5] is “altered neither the response to acute hypoxia”. Also, in series [6], the “Mean systemic arterial pressure” value is listed as 83±4 mmHg.

As to `CNCCC(Oc1ccc(C(F)(F)F)cc1)c1ccccc1` (stereo not shown) [fluoxetine], the “5-HT-induced increase” value in series [4] is “completely abolished”. In addition, the “baseline RVSP” value in series [5] (10 mg/kg/day by gavage, normoxic ventilation) is “did not alter”. Also, the “Mean systemic arterial pressure” value in series [6] amounted to 86±5 mmHg. Also, the “muscularization of distal pulmonary vessels” value in series [7] (setting [9]) is on record as “markedly attenuated”. Moreover, in series [7], the “hypoxia-induced increase in RVSP” value was “significantly attenuated”.

For the compound `NC1=NCC(c2ccccc2)O1` (stereo not shown) [a minorex], the 5-HTT substrate in series [2] was 5-HTT substrates.

On to `NCCc1c[nH]c2ccc(O)cc12` [5-HT, 5-hydroxytryptamine], for which, in series [4] (5-HT 10^−8-10^−6 M), the “[3H]thymidine incorporation” value is reported as “concentration-dependent increase”.

`COc1ccc(NC(=O)c2ccc(-c3ccc(-c4noc(C)n4)cc3C)cc2)cc1N1CCN(C)CC1` [GR127935, 2′-methyl-4′-(5-methyl-[1,2,4]oxadiazol-3-yl)-biphenyl-4-carboxylic acid [4-methoxy-3-(4-methyl-piperazine-1-yl)-phenyl]amide]: the “5-HT-induced increase” value in series [4] is recorded as “not affected”. Also, in series [5], the “pressure (RVSP) response to acute hypoxia” value is on record as “abolished the pressure response to hypoxia”. In addition, in series [6], the “Mean systemic arterial pressure” value is on record as 85±6 mmHg. Further, the “muscularization of distal pulmonary vessels” value in series [7] (setting [9]) is recorded as “did not affect”. The “right ventricular hypertrophy (RV/LV+S ratio)” value in series [7] (2-week chronic hypoxia, daily treatment, vs hypoxic vehicle-treated mice (41.5±1.5%)) was “did not differ”. In addition, the “hypoxia-induced increase in RVSP” value in series [7] is reported as “did not differ”. Further, the “protection against development of PH” value in series [8] is “partial protection”.

On to `CN(C)CCCC1(c2ccc(F)cc2)OCc2cc(C#N)ccc21` (stereo not shown) [citalopram], for which the “Mean systemic arterial pressure” value in series [6] stood at 87±7 mmHg.

(Values after patent US8614247B2, “Methods for preventing, attenuating or treating pulmonary hypertension using a serotonin transporter inhibitor, and pharmaceutical compositions for the treatment thereof” (Institut National de la Sante et de la Recherche Medicale, priority 2003, dated 2013).)
